Measurements published in patent publication US9375438B2, “Inhibitors of NCCa-ATP channels for therapy” (University of Maryland, Baltimore, priority 2007, dated 2016).
Like-named read-outs stand apart in the source and are kept apart here.

Tests used:
rats with percussion-TBI [1] = assay: Percussion-TBI model: spontaneous forelimb use and spontaneous vertical exploration; type: in vivo, rat
Excerpt: (§1) Young adult male Long-Evans rats, 240-280 gm, were studied. Rats were anesthetized (Ketamine and Xylazine) and physiological parameters including temperature and blood gases were maintained within appropriate physiological ranges. With the head fixed in a stereotaxic frame, a 6-mm circular craniectomy was created abutting the sagittal and lambdoidal sutures. A posterior location was chosen to emphasize damage to underlying hippocampus (Vink et al., 2001; Floyd et al., 2002). […] Sham controls underwent craniectomy without percussion.
Spontaneous forelimb use (SFU) was quantified and spontaneous vertical exploration (SVE) was quantified during 7 days post-TBI. SFU measures sensorimotor asymmetry (Schallert et al., 2000) whereas SVE measures not only vestibulomotor function but also time spent in exploratory activity.

[2] = tested on: rats with hemi-cervical spinal cord contusion (SCI); assay: SCI model: neurobehavioral assessment (inclined plane, paw placement, rearing); type: in vivo, rat
Procedure: (§2) SCI injury model. This study was performed in accordance with the guidelines of the Institutional Animal Care and Use Committee. Adult female Long-Evans rats (275-350 gm) were anesthetized (Ketamine, 60 mg/kg plus Xylazine, 7.5 mg/kg, i.p.). The dura at C4-5 was exposed via a left hemilaminectomy. A hemi-cervical spinal cord contusion was created using a blunt force impactor (1.3-mm impactor head driven by a 10 gm weight dropped vertically 25 mm) (Soblosky et al., 2001; Gensel et al., 2006). After SCI, animals were given 10 ml of glucose-free normal saline s.q. Rectal temperature was maintained at ˜37° C. using a servo-controlled warming blanket.
(§3) For in vivo gene suppression of SUR1, we used oligodeoxynucleotides that were phosphorothioated at 4 distal bonds to protect against endogenous nucleases (35).
Neurobehavioral Assessment. All measurements were performed by blinded evaluators. Performance on the inclined plane was evaluated as described (Rivlin and Tator, 1977). To assess paw placement and vertical exploration (rearing) (Nikulina et al., 2004) animals were videotaped while in a translucent cylinder (19×20 cm). Rearing was quantified as the number of seconds spent with both front paws elevated above shoulder-height during a 3-min period of observation.

[3] = Long-Evans, rat, in vivo
[4] = tested on: cells expressing SUR1-regulated NCCa-ATP channel; settings: cited from earlier work
[5] = rat, in vivo
Procedure: as §2, with “blanket. Blood gases and serum glucose 10-15 min post-SCI were: pO2, 95±6 mm Hg; pCO2, 46±3 mm Hg; pH, 7.33±0.01; glucose 258±17 mg/dl in controls and pO2, 96±7 mm Hg; pCO2, 45±2 mm Hg; pH, 7.37±0.01; glucose 242±14 mg/dl in glibenclamide-treated animals.” for “blanket.”
(§4) Drug delivery. […] During the course of the project, slightly different formulations of drug were used, with the best results obtained using stock solutions made by placing 50 mg (or 25 mg) of drug into 10 ml DMSO, and infusion solutions made by placing 400 μl (or 800 μl) stock into 4.6 ml (or 4.2 ml) unbuffered saline (0.9% NaCl) and adjusting the pH to ˜8.5 using 0.1 N NaOH.

[6] = tested on: rats with hemi-cervical spinal cord contusion (SCI); assay: SCI model: extravasated blood in cord (tissue blood); type: in vivo, rat
Procedure: as §2, §3
Tissue blood. Rats were sacrificed at various times after SCI (n=5-11 rats/group), were perfused with heparinized saline to remove intravascular blood, and 5-mm segments of cord encompassing the lesion were homogenized and processed as described (Choudhri et al., 1997).

[7] = tested on: rodent models of ischemic stroke; settings: model of malignant cerebral edema; cited from earlier work
[8] = tested on: rats with hemi-cervical spinal cord contusion (SCI); assay: SCI model: vimentin immunolabeling of capillaries; type: in vivo, rat; settings: region of injury; glibenclamide 200 ng/h s.q. vs controls
Procedure: as §2, with “blanket. Blood gases and serum glucose 10-15 min post-SCI were: pO2, 95±6 mm Hg; pCO2, 46±3 mm Hg; pH, 7.33±0.01; glucose 258±17 mg/dl in controls and pO2, 96±7 mm Hg; pCO2, 45±2 mm Hg; pH, 7.37±0.01; glucose 242±14 mg/dl in glibenclamide-treated animals.” for “blanket.”
as §4
Immunohistochemistry. […] Quantitative immunofluorescence was performed as described (Gerzanich et al., 2003).

[9] = tested on: rats with hemi-cervical spinal cord contusion (SCI); settings: following SCI (Simard et al., 2007); cited from earlier work
[10] = tested on: rats with hemi-cervical spinal cord contusion (SCI); assay: SCI model: lesion size; type: in vivo, rat
Procedure: as §2, with “blanket. Blood gases and serum glucose 10-15 min post-SCI were: pO2, 95±6 mm Hg; pCO2, 46±3 mm Hg; pH, 7.33±0.01; glucose 258±17 mg/dl in controls and pO2, 96±7 mm Hg; pCO2, 45±2 mm Hg; pH, 7.37±0.01; glucose 242±14 mg/dl in glibenclamide-treated animals.” for “blanket.”
as §4
Lesion size. At 7 d post-SCI, cords were paraffin sectioned and stained with H&E. Lesion volumes were calculated from lesion areas measured on serial sections every 250 μm.
Immunohistochemistry. Cryosections were immunolabeled (Chen et al., 2003; Simard et al., 2006) using primary antibodies directed against SUR1 (Santa Cruz, C-16; 1:200; 1 h at RT, 48 h at 4° C.), SUR2 (Santa Cruz, H-80; 1:200; 1 h at RT, 48 h at 4° C.), GFAP (Sigma, C-9205; 1:500), and vimentin (Sigma, monoclonal CY3 conjugated; 1:100). Quantitative immunofluorescence was performed as described (Gerzanich et al., 2003).

uninjured rats = assay: Tail tip bleeding time; type: in vivo, rat; settings: for bleeding time (effect): uninjured rats infused with glibenclamide vs vehicle
Procedure: Bleeding times were measured using tail tip bleeding as described (Lorrain et al., 2003).

[11] = tested on: rats with hemi-cervical spinal cord contusion (SCI); settings: following SCI (Simard et al., 2007); cited from earlier work; remark: listed apart in the source
rats with percussion-TBI [12] = assay: Percussion-TBI model: extravasated blood in brain homogenates; type: in vivo, rat
Excerpt: as §1

[13] = 1, 3 and 7 d post-SCI, glibenclamide vs vehicle

Compound: COc1ccc(Cl)cc1C(=O)NCCc1ccc(S(=O)(=O)NC(=O)NC2CCCCC2)cc1 [glibenclamide]
- spontaneous vertical exploration (SVE) (rats with percussion-TBI [1]; 1, 2 and 7 days post-TBI, vs vehicle controls): significantly greater
- spontaneous use of the forelimb contralateral to the injury (rats with percussion-TBI [1]; 2 days post-TBI): 16.5±3.4%
- performance on inclined plane [2, 13]: significantly better performance
- vertical exploratory behavior (rearing), performance [2, 13]: significantly better performance
- vertical exploratory behavior (rearing) ([2]; 1 d post-SCI, additional groups, 14-15 rats/group, 3-min observation): 42 ± 7 s
- ipsilateral paw placement ([2]; 1 d post-SCI, glibenclamide vs vehicle): significantly better performance
- mobility / exploratory behavior ([2]; post-SCI, vs vehicle-treated rats): typically ambulatory and often exhibited proficient exploratory behavior
- time required to achieve 90% steady-state serum drug levels [3]: 3 h
- oncotic (necrotic) cell death on ATP depletion [4]: can be blocked
- blood pH [5]: 7.37±0.01
- pCO2 [5]: 45±2 mm Hg
- pO2 [5]: 96±7 mm Hg
- serum glucose [5]: 242 ± 14 mg/dL
- hemorrhage in cords (visual) ([6]; 24 h post-SCI, glibenclamide 200 ng/h s.q. vs vehicle): visibly less hemorrhage
- extravasated blood in tissue homogenates ([6]; during the 24 h after injury, glibenclamide 200 ng/h s.q. vs vehicle): little increase
- PHN ([6]; following SCI (summary)): significantly reduced
- mortality [7]: by half
- appearance of vimentin(+) capillaries [8]: elongated and appeared more normal
- reduction in lesion volume [9]: 3 fold
- lesions, gliosis and myelin (GFAP and myelin labeling) ([10]; 24 h post-SCI, vs controls): smaller lesions, less reactive gliosis and better myelin preservation
- lesions on hematoxylin and eosin cross sections ([10]; 7 d post-SCI, vs controls): smaller lesions
- reduction in lesion volume ([10]; following SCI, compared to controls (summary)): 3 fold
- bleeding time (effect) (uninjured rats): no effect
- bleeding time (effect) (uninjured rats; listed as Glibenclamide): did not affect
- tail bleeding time (uninjured rats; uninjured rats, same dose (200 ng/hr), n=3-5): 21.5 ± 3.1 s
- capillary fragmentation and progressive secondary hemorrhage [11]: essentially eliminates
- appearance of tissue homogenates (rats with percussion-TBI [12]; 24 hr post-injury, vs vehicle): visibly less bloody
- increase in extravasated blood (rats with percussion-TBI [12]; later times (6 and 24 hr) post-TBI, vs vehicle): prevented further increases in blood
- volume of blood in brain homogenate (rats with percussion-TBI [12]; ½ hr post-injury, glibenclamide 200 ng/hr s.q. vs vehicle): did not affect
